Laboratory results published in patent US5492929A, “Condensed heterocyclic compounds useful for inhibiting acyl-CoA” (Takeda Chemical Industries, Ltd., priority 1992, dated 1996).
Values belong to the compound of their own block, whether it stands above or below them.

Assays:
[1] = molecular target: T1, Acyl-CoA:cholesterol acyltransferase (ACAT) (Rattus norvegicus, UniProt Q7TQM4); assay: ACAT inhibitory action: labeled cholesterol ester formation from [1-14C]oleoyl-CoA and endogenous cholesterol, small-intestinal mucosal microsomal enzyme; assay type: biochemical, rat (Sprague-Dawley); conditions: 10^-6 M; read-out: ACAT inhibitory rate (%)
T1 construct: prepared from the microsomal fraction of mucosal cells from the small intestines of rats; from tissue; host or cells: microsomal fraction of small-intestinal mucosal cells, fasted 6-week-old male Sprague-Dawley rats
T1 sequence (Q7TQM4 1-524): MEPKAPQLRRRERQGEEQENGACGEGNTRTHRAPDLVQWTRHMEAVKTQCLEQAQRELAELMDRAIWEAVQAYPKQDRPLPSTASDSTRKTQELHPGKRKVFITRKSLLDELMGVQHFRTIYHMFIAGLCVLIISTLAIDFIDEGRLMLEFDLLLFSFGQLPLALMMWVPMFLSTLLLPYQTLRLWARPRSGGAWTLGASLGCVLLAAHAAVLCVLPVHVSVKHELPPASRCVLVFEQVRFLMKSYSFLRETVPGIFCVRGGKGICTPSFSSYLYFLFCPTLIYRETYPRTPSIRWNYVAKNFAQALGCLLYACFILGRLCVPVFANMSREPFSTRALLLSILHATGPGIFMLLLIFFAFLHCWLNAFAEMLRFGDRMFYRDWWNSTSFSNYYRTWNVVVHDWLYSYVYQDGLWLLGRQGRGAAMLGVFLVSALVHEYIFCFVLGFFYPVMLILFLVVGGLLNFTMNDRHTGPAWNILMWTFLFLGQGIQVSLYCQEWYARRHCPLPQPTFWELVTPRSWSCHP
Method: In accordance with the method disclosed by Heider et al. on Journal of Lipid Research, 24, p.1127 (1983), an enzyme sample ACAT was prepared from the microsomal fraction of mucosal cells from the small intestines of rats (6-week old male Sprague-Dawleys) fasted for 20 hours.
The ACAT activity was determined by, in accordance with the method disclosed by Helgerud et al. on Journal of Lipid Research 22, p.271 (1981), measuring the amount of labeled cholesterol ester from [1-^14 C]oleoyl-CoA and endogenous cholesterol.
(1) In Table 2, the labeled cholesterol ester formation inhibitory rate (%) determined when supplemented with 10^-6 M of a test compound (a representative one of the compounds obtained in the following Examples 1 to 24) is shown as the index of ACAT inhibitory activity.

[2] = molecular target: T1, Acyl-CoA:cholesterol acyltransferase (ACAT); assay: as above; assay type: biochemical, rat (Sprague-Dawley); conditions: 10^-8 M; read-out: ACAT inhibitory rate (%) (in parentheses)
[3] = test system: hypercholesterolemic ICR mice; assay: Hypocholesterolemic (cholesterol-lowering) activity in mice fed a high cholesterol-cholic acid diet; assay type: in vivo, mouse (ICR); conditions: serum, vs control
Method: Groups of 6 ICR mice (2 subgroups of 3 mice) were made hypercholesterolemic by being fed a high cholesterol-cholic acid diet for 7 days and administered with test compounds orally on the last two days. One-half of the total dose was given on day 6 followed by the other half on day 7. After fasting overnight (16 hours after the last dose), the animals were sacrificed and sera were collected together for the each subgroup for measuring the levels of cholesterol and heparin precipitating lipoproteins (HPL). Both cholesterol and HPL levels were measured with autoanalyzer by the enzymatic CHOD-PAP method for the former and by the turbidimetric method of Shurr et. al. [in C. E. Dau ed. Atherosclerosis Drug Discovery, Plenum Publishing, New York, pp.215-229 & 231-249, 1976.] for the latter.

[4] = 1 mg/kg po (total dose, halves on day 6 and 7)
[5] = 10 mg/kg po (total dose, halves on day 6 and 7)
[6] = 30 mg/kg po (total dose, halves on day 6 and 7)

SMILES: Cc1ccccc1-c1c(CC(=O)Nc2c(F)cc(F)cc2F)oc2ccc(Cl)cc12 [Example 17, 5-Chloro-3-(2-methylphenyl)-N-(2,4,6-trifluorophenyl)-2-benzofuranacetamide]
inhibition at 1 µM [1]: 92.9%

SMILES: CC(C)c1cccc(C(C)C)c1NC(=O)Cc1oc2ccc(Cl)cc2c1-c1ccccc1 [Example 4, N-[2,6-Bis(1-methylethyl)phenyl]-5-chloro-3-phenyl-2-benzofuranacetamide]
inhibition at 1 µM [1]: 99%

SMILES: Cc1ccccc1-c1c(NC(=O)Nc2c(C(C)C)cccc2C(C)C)oc2ccc(Cl)cc12 [Example 11, N-[2,6-Bis(1-methylethyl)phenyl]-N'-[5-chloro-3-(2-methylphenyl)-2-benzofuryl]urea]
inhibition at 1 µM [1]: 99.1%
Reduction % HPL (heparin precipitating lipoproteins) [3, 4]: 27%
Reduction % cholesterol [3, 4]: 28%
Reduction % HPL (heparin precipitating lipoproteins) [3, 5]: 38%
Reduction % cholesterol [3, 5]: 31%
inhibition at 0.01 µM [2]: 92.2%

SMILES: Cc1ccccc1-c1c(NC(=O)Nc2c(F)cc(F)cc2F)oc2ccc(Cl)cc12 [Example 18, N-[5-Chloro-3-(2-methylphenyl)-2-benzofuryl]-N'-(2,4,6-trifluorophenyl)urea]
inhibition at 1 µM [1]: 90.1%

SMILES: Cc1ccccc1-c1c(CC(=O)Nc2c(C(C)C)cccc2C(C)C)oc2ccc(Cl)cc12 [Example 1, N-[2,6-Bis(1-methylethyl)phenyl]-5-chloro-3-(2-methylphenyl)-2-benzofuranacetamide]
inhibition at 1 µM [1]: 99.2%
Reduction % HPL (heparin precipitating lipoproteins) [3, 6]: 27%
Reduction % cholesterol [3, 6]: 32%
inhibition at 0.01 µM [2]: 93.7%

SMILES: CCOc1cccc(OCC)c1NC(=O)Cc1oc2ccc(Cl)cc2c1-c1ccccc1C [Example 16, 5-Chloro-N-(2,6-diethoxyphenyl)-3-(2-methylphenyl)-2-benzofuranacetamide]
inhibition at 1 µM [1]: 98.1%
inhibition at 0.01 µM [2]: 50.3%

SMILES: COc1cccc(OC)c1NC(=O)Nc1oc2ccc(Cl)cc2c1-c1ccccc1C [Example 19, N-[5-Chloro-3-(2-methylphenyl)-2-benzofuryl]-N'-(2,6-dimethoxyphenyl)urea]
inhibition at 1 µM [1]: 99%
inhibition at 0.01 µM [2]: 28.8%

More lines, now with the values ahead:

inhibition at 1 µM [1]: 90.8%
SMILES: Cc1cc(C)c(NC(=O)Cc2oc3ccc(Cl)cc3c2-c2ccccc2C)c(C)c1 [Example 3, 5-Chloro-3-(2-methylphenyl)-N-(2,4,6-trimethylphenyl)-2-benzofuranacetamide]

inhibition at 1 µM [1]: 91.2%
SMILES: COc1cccc(OC)c1NC(=O)Cc1c(-c2ccccc2C)c2cc(Cl)ccc2n1C [Example 8, 5-Chloro-N-(2,6-dimethoxyphenyl)-1-methyl-3-(2-methylphenyl)-2-indoleacetamide]

inhibition at 1 µM [1]: 93.2%
SMILES: COc1cccc(OC)c1NC(=O)Cc1oc2ccc(Cl)cc2c1-c1ccccc1 [Example 5, 5-Chloro-N-(2,6-dimethoxyphenyl)-3-phenyl-2-benzofuran acetamide]

inhibition at 1 µM [1]: 99.4%
inhibition at 0.01 µM [2]: 39.9%
SMILES: CCOc1cccc(OCC)c1NC(=O)Nc1oc2ccc(Cl)cc2c1-c1ccccc1C [Example 20, [5-Chloro-3-(2-methylphenyl)-2-benzofuryl]-N'-(2,6-diethoxyphenyl)urea]

inhibition at 1 µM [1]: 98.8%
SMILES: COc1cccc(OC)c1NC(=O)Cc1oc2ccc(Cl)cc2c1-c1ccccc1C [Example 2, 5-Chloro-N-(2,6-dimethoxyphenyl)-3-(2-methylphenyl)-2-benzofuranacetamide]

inhibition at 1 µM [1]: 92.3%
SMILES: Cc1ccccc1-c1c(CC(=O)Nc2c(C(C)C)cccc2C(C)C)n(C)c2ccc(Cl)cc12 [Example 7, N-[2,6-Bis(1-methylethyl)phenyl]-5-chloro-1-methyl-3-(2-methylphenyl)-2-indoleacetamide]
